Here are results for 91 molecules from a melting point compilation (Tetko et al.; mined from patent text by program, amines drawn as free bases though some values may be those of a salt).

Each structure is given as a SMILES string.

Consider `Cc1[nH]c2ccccc2c1C(=O)NC1CCN(Cc2ccccc2)CC1`, for which the melting point is 150 to 153 °C.

Regarding `OCc1c[nH]c2c1ccc1c3ccccc3[nH]c12`, the melting point is > 295 °C.

Regarding `CC(C)c1ccc(C(=O)c2ccc([N+](=O)[O-])cc2)cc1`, the melting point is 95 °C.

For `O=C(O)C=Cc1ccc(Oc2nsnc(Cl)c2=O)cc1`, the melting point was > 280 °C.

As to `O=Cc1ccc(Cl)c(Cl)c1O`, the melting point worked out at 97 °C.

Consider `COc1cc(Cl)c2nc(-c3ccc(OC)c(F)c3)cc(Br)c2c1`, for which the melting point was in the range of 156 to 157 °C.

For `CCOC(=O)c1ccc(OCCCCCCCCCCCCCCOc2ccc(Cl)cc2)cc1`, the melting point was 72.5 to 73.5 °C.

`CC(C)(C)[Si](C)(C)OC1C(n2ccc(=O)[nH]c2=O)OC(CO)C1(O)C#C[Si](C)(C)C` (stereo unspecified): the melting point fell in the range of 188 to 189 °C.

The molecule `CN1CCC(C(C(=O)N2CCCC2)(c2ccccc2)c2ccccc2)C1` (stereo unspecified) returned a melting point of 137 to 140 °C.

`N#Cc1ccc(Oc2ccc(Cl)c(Cl)c2)c(C=O)c1` showed a melting point of 122 to 126 °C.

In turn, `OCCCc1cnoc1-c1ccc(Cl)c(Br)c1` displayed a melting point of 75 to 76 °C.

Regarding `CSc1sc(S(C)(=O)=O)cc1C#N`, the melting point is 126 to 128 °C.

Consider `CCOC(=O)CCc1ccc(OC)c(OCc2ccccc2)c1`, for which the melting point was 49.5 to 50.5 °C.

Consider `COc1ccc2ccc3c(c2c1)CCC(=O)O3`, for which the melting point lay within 100 to 101 °C.

`O=C(NCS(=O)(=O)c1ccccc1)c1cc(Cl)nc(Cl)c1` displayed a melting point of 209 to 210 °C.

`O=c1c2cc(F)ccc2[nH]c(=S)n1-c1ccccc1Cl` displayed a melting point of 295 to 297 °C.

With `COc1cc(Nc2nccc(-c3nc4ccccc4s3)n2)cc(OC)c1OC`, the melting point was 182 to 183 °C.

On to `CCCCCC1CCC(c2ccc3c(c2F)C(F)(F)Oc2c-3ccc(OCCCC)c2F)CC1` (stereo unspecified), for which the melting point was 99 °C.

In turn, `CC(C)(NC(=O)c1ccc([N+](=O)[O-])cc1)C(=O)CCl` came in with a melting point of 181 to 182 °C.

Take `Cc1cc(-n2cncn2)c2c(Cl)ccc(C)c2n1`: the melting point lay within 117 to 118 °C.

In the case of `Cn1ncc2c(=O)n3c(nc21)SCC3(C)C`, the melting point came out at 188 °C.

Take `COC(=O)CNC(=O)COc1ccc(C(C)=O)cc1`: the melting point was in the range of 120 to 121 °C.

As to `COc1cc2c(cc1OC)-c1c(-c3nc(-c4ccccc4)no3)c(-c3cc(C)c(O)c(C)c3)c(C)n1CC2`, the melting point lay in the range of 191 to 193 °C.

The molecule `COc1cc(N)c(Cl)cc1C(=O)N(C)OC` showed a melting point of 134 to 135 °C.

`CC(=O)N1CCc2c(cccc2NS(=O)(=O)c2ccccc2)C1` yielded a melting point of 131 to 132 °C.

Molecule `O=C(Nc1nccs1)C(CC1CCCC1)c1ccc(-c2ccccc2)cc1` (stereo unspecified) yielded a melting point of 57 to 58 °C.

With `CCNC(=O)c1c([Si](C)(C)C)ccc(I)c1Cl`, the melting point is 128 to 130 °C.

`O=C1NC(=O)C(N2C(=O)c3ccccc3C2=O)CC1O` (stereo unspecified) yielded a melting point of 195 to 230 °C.

`C/C(NCCCc1ccccc1)=C(\C#N)C(N)=S`: the melting point was 125 to 126 °C.

Consider `CCCCN1CCC(O)(c2cccn2Cc2ccccc2F)CC1`, for which the melting point lay within 132 to 135 °C.

As for `CCC(CCCc1cccnc1)NC(=O)C(O)c1ccccc1` (stereo unspecified), the melting point was 122 to 124 °C.

`CCOCc1c(-c2ccccc2)oc2c(C(=O)NCCCN3CCN(c4ccccc4OC)CC3)cccc2c1=O` showed a melting point of 129 to 133 °C.

`Oc1ccc2c(c1)CCCC(c1ccccc1)=C2c1ccc(OCCCCCSCc2cccs2)cc1` registered a melting point of 178 °C.

Turning to `CC(=O)c1cccc(Oc2ncccc2C(=O)NCc2ccc(S(N)(=O)=O)cc2)c1`, the melting point fell in the range of 162 to 164 °C.

Regarding `O=[N+]([O-])c1ccc2oc(-c3ccco3)nc2c1`, the melting point is 175 to 177 °C.

`Cc1c[nH]c(=O)n(CCCCl)c1=O` registered a melting point of 117 to 121 °C.

For `COc1c(C)cc([N+](=O)[O-])c(NC(C)C)c1[N+](=O)[O-]`, the melting point lay in the range of 77.5 to 79 °C.

Molecule `NC(=O)C(Nc1cccc2c1C(=O)CO2)c1c(Cl)cccc1Cl` (stereo unspecified) came in with a melting point of 245 °C.

The molecule `CCN(CC)C(=O)/C=C/CSc1nc(N)cc(Cl)n1` had a melting point of 143 to 145 °C.

Take `O=C1c2ccccc2C(=O)N1C/C=C/COc1ccc(-n2ccnc2)cc1`: the melting point lay in the range of 170 to 171 °C.

For `CCn1c(-c2ccc3c(c2)OCCO3)cc(=Nc2c(C)cc(C)cc2C)n(C)c1=O`, the melting point was in the range of 75 to 82 °C.

The molecule `CC(Oc1ncn(-c2ccccc2)n1)C(=O)O` (stereo unspecified) registered a melting point of 140 to 142 °C.

The molecule `c1cc2cc(-c3cnc(O[C@H]4CCN5CCC[C@@H]4C5)nc3)ccc2[nH]1` registered a melting point of 195 to 199 °C.

In turn, `NS(=O)(=O)c1cc(C(=O)CCCCN(CCc2ccccc2OC(F)(F)F)C(=O)C(F)(F)F)cc2c1OCC2` registered a melting point of 108 to 110 °C.

Take `COc1cccc(C2(Cl)C(C)(C)C2(C)C)c1OC`: the melting point was 123 to 125 °C.

Take `N#CNC(=S)Nc1ccc(F)cc1`: the melting point was > 270 °C.

In the case of `CN1C(=O)N(c2ccccc2O)Cc2cnc(Nc3ccccc3)nc21`, the melting point stood at 192 °C.

Turning to `COC(=O)CSc1nc(Nc2ccc(N3CCOCC3)cc2)ncc1[N+](=O)[O-]`, the melting point lay within 188 to 190 °C.

With `CCCN1C(=O)CN(C)C1S(=O)(=O)N=NC(=O)Nc1nc(OC)cc(OC)n1` (stereo unspecified), the melting point fell in the range of 96 to 98 °C.

`CC(C)NC(=O)c1nc(-c2cccc(F)c2)c(-c2ccc(=O)n(C(C)C)n2)s1` returned a melting point of 104 to 106 °C.

`COCCOc1ccc(/C=C(\C)C(=O)NS(=O)(=O)C(F)(F)F)c(Oc2ncc(C(F)(F)F)cc2Cl)c1` registered a melting point of 146 to 147 °C.

For `CC1Cc2cc(C(O)C(C)N3CCC(n4c(=O)[nH]c5ccccc54)CC3)ccc2S1` (stereo unspecified), the melting point was in the range of 220 to 222 °C.

For the molecule `CCSc1ccc(SCC)c(C#N)n1`, the melting point is 63 to 64 °C.

Molecule `CN1CCOc2ccc(S(=O)(=O)n3c(Cc4ccc(C(=O)O)cc4)cc4c(Cl)cccc43)cc21` returned a melting point of 236 °C.

As to `COc1ccc(C(=O)Nc2ccc(F)cc2)cc1N([N+](=O)[O-])S(=O)(=O)c1ccccc1`, the melting point lay in the range of 221 to 240 °C.

For `C#CCn1c(=O)sc2cc(F)c(-n3c(=O)cc(C)[nH]c3=O)cc21`, the melting point is > 250 °C.

`O=[N+]([O-])c1ccc(-c2nc(-c3ccccn3)no2)cc1` had a melting point of 211 to 213 °C.

Molecule `Oc1cccc(/C=C/c2ccccc2)c1` displayed a melting point of 125 to 126 °C.

In turn, `CC(=O)c1c(O)cccc1OCC(O)COc1cc(C)ccc1C` (stereo unspecified) showed a melting point of 104 to 106 °C.

In turn, `COC(=O)c1ncccc1NC(=O)C(C)CS` (stereo unspecified) yielded a melting point of 55 to 56 °C.

Molecule `CC(=O)Nc1ccc2c(c1)COCO2` returned a melting point of 133 to 134 °C.

On to `CCOC(=O)c1cc([N+](=O)[O-])c(N)nc1C(=O)OCC`, for which the melting point was in the range of 120 to 122 °C.

In turn, `COc1ccc(N2C(=O)C(C)N(c3ccc(Cc4ccccc4)cc3)C2=S)cc1` (stereo unspecified) gave a melting point of 122 °C.

As for `O=C(O)c1cccc(CCc2n[nH]c3c2c(=O)n(-c2ccccc2)c2ncccc32)c1`, the melting point was in the range of 159 to 161 °C.

For the molecule `CCc1cn(C2CC(O)C(CN=[N+]=[N-])O2)c(=O)nc1NC(=O)c1ccccc1` (stereo unspecified), the melting point was in the range of 125 to 126 °C.

On to `Cc1ccc(-c2nc3ccc(C(=O)O)cn3c2CN(C)C(=O)CC(C)C)cc1`, for which the melting point was in the range of 227 to 229 °C.

`Cc1ccsc1C(=O)C(=CN(C)C)c1ccccc1[N+](=O)[O-]` registered a melting point of 101 to 103 °C.

Take `C#CC(C)(C)N1CCN(C(=O)OC(C)(C)C)CC1`: the melting point was in the range of 106 to 107 °C.

With `COc1ccc2cc3c(N)nn(CCN4CCOCC4)c3nc2c1`, the melting point was 166 to 168 °C.

Consider `Clc1ncc(-c2ccccc2)o1`, for which the melting point was 34 °C.

Molecule `CS(=O)(=O)c1ccc(-c2cnn(-c3ccc(F)c(F)c3)c(=O)c2Oc2ccc(F)cc2)cc1` returned a melting point of 178 to 180 °C.

Molecule `O=c1cc(CCCCBr)c2ccccc2[nH]1` gave a melting point of 156 to 158 °C.

`CC(C)C1=CC2=CCC3C(C)(C(=O)N(C)C4CCCCC4)CCCC3(C)C2CC1` (stereo unspecified): the melting point lay within 130 to 132 °C.

For `CS(=O)(=O)N1CCCn2c(nc3c(N)nc4c(c32)CCCC4)C1`, the melting point is 270 to 272 °C.

With `N#Cc1cccn(-c2ccc(S(=O)(=O)N(CCO)CCO)cc2)c1=O`, the melting point was 226 to 228 °C.

The molecule `Cc1cccc(C#C[C@@]2(O)CCC[C@@H](NC(=O)c3ccco3)C2)c1` showed a melting point of 139 to 142 °C.

In turn, `CCOC(=O)C1=C(C)NC(c2ccc(OC)cc2)=C(C(=O)OCC)C1c1cccc([N+](=O)[O-])c1` (stereo unspecified) displayed a melting point of 166 to 167 °C.

Turning to `O=C(O)c1nn(-c2ccc(Cl)cc2Cl)c2c1CCCC2`, the melting point lay within 239 to 240 °C.

For the molecule `CC(C)(C)c1cc(-n2ccc(=O)[nH]c2=O)cc(-c2ccc3cc(NS(C)(=O)=O)ccc3c2)c1Cl`, the melting point was > 280 °C.

`COc1ccc(-c2sc(Nc3cnccn3)nc2C)cc1S(N)(=O)=O`: the melting point is 378 °C.

`Clc1cc(Cl)cc(C2=NOCCS2)c1` displayed a melting point of 88 to 89 °C.

The molecule `O=C1OC(c2ccccc2)(c2ccccc2)CC(O)=C1CCCc1ccccc1` showed a melting point of 61 to 63 °C.

`Cc1cc(C(=O)O)ccc1-c1ccc2cc3c(cc2c1)C(C)(C)CCC3(C)C`: the melting point is 248 to 250 °C.

On to `C[C@@]1(C(=O)O)Oc2ccccc2NC1=O`, for which the melting point fell in the range of 168 to 171 °C.

Regarding `CCSC1=NCC(=O)N1c1ccccc1`, the melting point was 79 to 81 °C.

Consider `CC(C)(C)C(NC(=O)c1ccc(Cl)cc1)NC(=NC#N)Nc1cccnc1` (stereo unspecified), for which the melting point is 194 to 195 °C.

On to `CNc1c(Cl)cc(C(=O)NCC2CCN(CCCOC)CC2)c2nccn12`, for which the melting point was 125 °C.

`ClC(Cl)=Cc1ccc(OCc2ccccc2)cc1` came in with a melting point of 74.5 to 76.5 °C.

With `O=c1[nH]c(=S)c(C2c3ccccc3C=Cc3ccccc32)cn1-c1ccc(Sc2n[nH]c(C(F)(F)F)n2)nn1`, the melting point is 165 °C.

For the molecule `CN(C)c1ccc(C(=N)Nc2cccc(NC(=O)C=Cc3ccccc3)c2)cc1`, the melting point fell in the range of 225 to 227 °C.

Molecule `COc1ccc(Cl)cc1C(=O)NCc1ccc(CCC(=O)O)cc1` gave a melting point of 152 to 153 °C.
